ChEMBL document CHEMBL1201862, “PubChem BioAssay data set” (2004)
Calls of active or inactive are those of the source.

Columns and labels:
[1] = LMP1-driven NF-kB reporter inhibition, dose response, cell-based, luciferase reporter, luminescence, dry powder, set 2 (AID 624376); format: functional
[2] = target: Botulinum neurotoxin type A (Clostridium botulinum (strain Hall / ATCC 3502 / NCTC 13319 / Type A), UniProt P0DPI1); assay: High-throughput multiplex microsphere dose response for inhibitors of toxin protease, specifically Botulinum neurotoxin light chain A protease, compounds from Powder Set 01.; format: functional, Clostridium botulinum A str. ATCC 3502; conditions: read-out: EC50_MICROM
Lethal factor = Lethal factor (Bacillus anthracis, UniProt P15917); assay: High-throughput multiplex microsphere dose response for inhibitors of toxin protease, specifically Lethal Factor protease, compounds from Powder Set 01.; format: functional, Bacillus anthracis str. A2012; conditions: read-out: EC50_MICROM
[3] = NIH-3T3 fibroblast cytotoxicity, dose response, cytotoxicity control, cell-based, fluorescence, Alamar Blue, secondary assay (AID 2327); format: functional;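 note: NIH-3T3 mouse fibroblasts cultured with fluconazole at 8 µg/mL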
[4] = C. albicans growth with fluconazole, confirmation, fluorescence, retest (AID 2467); format: functional, cell-based
[5] = inhibitors of intracellular T. cruzi replication, confirmation, NIH3T3 host cells, beta-gal luminescence (AID 2044); format: functional, cell-based;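 note: intracellular parasites grown in NIH/3T3 mouse fibroblasts as host cells; luminescent beta-galactosidase reporter signal from transgenic T. cruzi replicating inside host cells; inhibitors lower the luminescence signal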
[6] = target: T1, Calpain-2 catalytic subunit (Sus scrofa, UniProt P43367); assay: pig calpain II inhibitor potency, dose response, biochemical, fluorogenic peptide substrate (AID 1420); format: functional
T1 sequence (P43367 whole entry): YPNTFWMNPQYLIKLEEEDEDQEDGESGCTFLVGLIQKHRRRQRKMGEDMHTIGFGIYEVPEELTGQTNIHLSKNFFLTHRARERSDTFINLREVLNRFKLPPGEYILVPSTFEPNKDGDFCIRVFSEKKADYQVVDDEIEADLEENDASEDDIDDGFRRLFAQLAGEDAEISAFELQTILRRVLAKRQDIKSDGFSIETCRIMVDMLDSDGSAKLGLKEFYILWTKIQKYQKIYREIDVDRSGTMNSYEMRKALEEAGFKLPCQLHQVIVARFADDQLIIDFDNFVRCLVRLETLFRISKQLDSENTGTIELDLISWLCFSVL

[7] = cytotoxicity toward NIH3T3 fibroblasts, dose response, counter-screen, cell-based, ATP luminescence, mouse fibroblasts (AID 2010); format: functional;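 note: cells exposed to compound for about 90 hours before reading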
[8] = inhibitors of HIV Env-driven cell fusion, dose response, cherry-pick (AID 652057); format: functional, cell-based
Galanin receptor type 3 = target: T2, Galanin receptor type 3 (Homo sapiens, UniProt O60755); assay: Fluorescence-based cell-based primary high throughput dose response assay to identify antagonists of the Galanin Receptor 3 (GalR3).; format: functional
T2 sequence (O60755 whole entry): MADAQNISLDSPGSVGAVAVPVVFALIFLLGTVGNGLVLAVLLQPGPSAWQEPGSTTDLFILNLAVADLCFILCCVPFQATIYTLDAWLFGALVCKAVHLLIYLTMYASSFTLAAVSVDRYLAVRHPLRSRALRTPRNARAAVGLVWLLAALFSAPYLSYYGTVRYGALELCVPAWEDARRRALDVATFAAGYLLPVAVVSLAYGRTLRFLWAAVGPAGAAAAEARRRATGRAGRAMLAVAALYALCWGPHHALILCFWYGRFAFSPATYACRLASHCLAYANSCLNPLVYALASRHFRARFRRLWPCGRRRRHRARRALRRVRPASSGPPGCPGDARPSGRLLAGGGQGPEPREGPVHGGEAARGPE

cells [9] = format: functional, cell-based; conditions: HEK-CNG
[10] = CEM21 lymphoblast cell cytotoxicity, dose response, cytotoxicity control for viral fusion inhibitor project, CellTiter-Glo luminescence, cherry-picked (AID 652042); format: functional, cell-based;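 note: potency for signal decrease meaning cytotoxicity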
[11] = ZM109 Env clade C HIV-1 fusion inhibitors, dose response, HeLa effector, CEM target cells, luciferase, cherry-pick (AID 652058); format: functional, cell-based
Paired box protein Pax-8 = Paired box protein Pax-8 (Homo sapiens, UniProt Q06710); assay: inhibitors of PAX8-driven TPO luciferase reporter, dose response, RMG-I cells, cherry-pick (AID 687027); format: functional, cell-based;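 note: luciferase reporter driven by Pax8 target thyroperoxidase promoter measured by SteadyGlo luminescence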
[12] = inhibitors of clade B AD8 Env fusion, dose response, cell-based, cherry-pick (AID 652062); format: functional;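 note: luciferase signal from cell-cell fusion driven by HIV-1 clade B AD8 Env; potency is for inhibitors of fusion seen as a drop in luminescence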
cells [13] = assay: cells
[14] = target: T3, Carboxy-terminal domain RNA polymerase II polypeptide A small phosphatase 1 (Homo sapiens, UniProt Q9GZU7); assay: inhibitors of CTDSP1, concentration-response testing, biochemical assay, absorbance-based, actives from ultra-high-throughput screening (AID 540297); format: functional
T3 sequence (Q9GZU7 whole entry): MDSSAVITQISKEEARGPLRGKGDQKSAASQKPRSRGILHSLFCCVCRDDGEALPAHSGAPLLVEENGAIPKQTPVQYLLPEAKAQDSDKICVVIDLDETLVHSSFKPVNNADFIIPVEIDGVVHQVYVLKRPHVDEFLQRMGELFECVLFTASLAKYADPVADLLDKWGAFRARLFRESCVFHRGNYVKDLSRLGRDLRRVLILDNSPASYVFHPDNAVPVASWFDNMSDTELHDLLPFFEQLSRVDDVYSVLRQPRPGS

[15] = AlphaScreen signal interference compounds, dose response, artefact control for ARNT-TACC3 interaction inhibitor project, biochemical, luminescence, cherry-pick (AID 651705); format: functional;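 note: AlphaScreen bead proximity signal that flags compounds interfering with the detection technology; potency reflects signal decrease which marks the compound as an assay artifact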
[16] = ARNT/TACC3 interaction disruptors, potency, confirmation, biochemical, AlphaScreen, cherry-picked samples (AID 651703); format: functional, Homo sapiens;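 note: His-tagged ARNT PAS-B domain paired with GST-TACC3 E629A dimer coactivator fragment; potency of inhibitors that break up the complex and lower AlphaScreen signal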
Caspase-6 = target: T4, Caspase-6 (Homo sapiens, UniProt P55212); assay: human caspase-6 inhibitors, dose response, biochemical, VEID-R110 fluorescence, cherry-pick (AID 720632)
T4 sequence (P55212 whole entry): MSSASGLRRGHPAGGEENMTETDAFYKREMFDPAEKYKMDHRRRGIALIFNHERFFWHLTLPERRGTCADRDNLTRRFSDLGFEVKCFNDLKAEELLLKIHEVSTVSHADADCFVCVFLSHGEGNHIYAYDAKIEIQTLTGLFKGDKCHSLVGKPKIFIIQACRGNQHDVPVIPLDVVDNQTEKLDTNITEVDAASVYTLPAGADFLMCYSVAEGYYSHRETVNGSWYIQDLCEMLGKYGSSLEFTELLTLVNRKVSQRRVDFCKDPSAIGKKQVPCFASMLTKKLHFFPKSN

Beta-galactosidase = Beta-galactosidase (Escherichia coli, UniProt Q8VNN2); assay: Dose response counterscreen for EBI2 assay utilizing the enzyme, b-galactosidase.; format: functional
HEK293 = assay: inhibitors of LMP1-driven NF-kB reporter, dose response, cell-based, HEK293, luciferase, cherry-pick (AID 588343); format: functional; conditions: Homo sapiens
Interleukin-8 [17] = target: T5, Interleukin-8 (Homo sapiens, UniProt P10145); assay: Dose Response confirmation of uHTS small molecule hits for cystic fibrosis induced NFkb Inhibitors in a TNFa-induced IL8 counterscreen.; format: functional; conditions: read-out: IC50_Mean
Interleukin-8 [18] = target: T5, Interleukin-8; assay: Dose Response confirmation of uHTS small molecule hits for cystic fibrosis induced NFkb Inhibitors in a PAF-induced IL8 counterscreen.; format: functional; conditions: read-out: IC50_Mean
[19] = target: Tyrosine-protein phosphatase non-receptor type 11 (Homo sapiens, UniProt Q06124); assay: SHP2 phosphatase inhibition, dose response, selectivity assay for STEP inhibitor project, biochemical (AID 602367); format: functional; conditions: read-out: IC50_Mean
[20] = target: Tyrosine-protein phosphatase non-receptor type 5 (Homo sapiens, UniProt P54829); assay: STEP phosphatase inhibitors, confirmation, biochemical, fluorescence intensity, uHTS hits (AID 602372); format: functional; conditions: read-out: IC50_Mean
[21] = target: Dual specificity protein phosphatase 3 (Homo sapiens, UniProt P51452); assay: VHR phosphatase inhibition, dose response, selectivity assay for STEP inhibitor project, biochemical (AID 602374); format: functional; conditions: read-out: IC50_Mean
Chain of Dual specificity protein phosphatase 3 (P51452 whole entry): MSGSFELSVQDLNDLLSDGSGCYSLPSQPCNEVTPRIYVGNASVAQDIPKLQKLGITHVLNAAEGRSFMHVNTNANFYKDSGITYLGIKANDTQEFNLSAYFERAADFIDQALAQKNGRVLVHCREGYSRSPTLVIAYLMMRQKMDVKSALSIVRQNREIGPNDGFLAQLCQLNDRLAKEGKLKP

T5 sequence (P10145 whole entry): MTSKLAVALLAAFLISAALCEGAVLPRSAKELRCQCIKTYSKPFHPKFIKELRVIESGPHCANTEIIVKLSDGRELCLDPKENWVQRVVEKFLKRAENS
Chain of Lethal factor (P15917 whole entry): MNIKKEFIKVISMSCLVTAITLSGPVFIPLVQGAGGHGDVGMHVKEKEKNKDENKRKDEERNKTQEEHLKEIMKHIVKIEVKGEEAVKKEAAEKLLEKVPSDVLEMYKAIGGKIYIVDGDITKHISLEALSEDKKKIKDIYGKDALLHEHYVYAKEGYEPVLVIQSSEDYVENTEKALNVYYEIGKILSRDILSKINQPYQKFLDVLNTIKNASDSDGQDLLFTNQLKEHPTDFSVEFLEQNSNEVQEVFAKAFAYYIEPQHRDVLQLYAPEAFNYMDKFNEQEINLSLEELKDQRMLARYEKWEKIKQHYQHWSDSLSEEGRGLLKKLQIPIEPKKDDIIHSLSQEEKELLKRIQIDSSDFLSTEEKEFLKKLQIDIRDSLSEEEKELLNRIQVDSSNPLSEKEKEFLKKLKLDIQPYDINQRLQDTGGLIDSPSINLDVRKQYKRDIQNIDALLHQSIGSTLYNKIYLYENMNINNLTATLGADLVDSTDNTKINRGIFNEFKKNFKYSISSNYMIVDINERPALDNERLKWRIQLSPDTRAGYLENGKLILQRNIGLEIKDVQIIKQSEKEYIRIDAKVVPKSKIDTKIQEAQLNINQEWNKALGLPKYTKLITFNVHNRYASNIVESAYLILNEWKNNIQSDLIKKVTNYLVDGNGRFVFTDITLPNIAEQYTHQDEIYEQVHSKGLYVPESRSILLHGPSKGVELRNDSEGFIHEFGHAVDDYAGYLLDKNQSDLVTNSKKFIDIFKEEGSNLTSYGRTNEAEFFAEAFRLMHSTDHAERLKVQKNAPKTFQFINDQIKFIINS
Chain of Botulinum neurotoxin type A (P0DPI1 2-448 limits assumed): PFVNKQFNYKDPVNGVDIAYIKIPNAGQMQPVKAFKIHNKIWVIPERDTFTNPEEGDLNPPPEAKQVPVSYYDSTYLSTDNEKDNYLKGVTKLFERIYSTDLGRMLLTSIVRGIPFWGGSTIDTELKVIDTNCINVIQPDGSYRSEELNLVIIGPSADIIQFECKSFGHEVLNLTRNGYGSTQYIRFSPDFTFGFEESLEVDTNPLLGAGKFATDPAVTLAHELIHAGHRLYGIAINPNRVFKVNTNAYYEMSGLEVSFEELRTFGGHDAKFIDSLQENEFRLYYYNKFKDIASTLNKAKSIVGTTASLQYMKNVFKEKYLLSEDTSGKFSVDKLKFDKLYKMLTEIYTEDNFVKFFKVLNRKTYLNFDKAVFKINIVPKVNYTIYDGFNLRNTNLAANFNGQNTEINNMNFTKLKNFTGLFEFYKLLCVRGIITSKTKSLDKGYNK
Chain of Tyrosine-protein phosphatase non-receptor type 11 (Q06124 whole entry): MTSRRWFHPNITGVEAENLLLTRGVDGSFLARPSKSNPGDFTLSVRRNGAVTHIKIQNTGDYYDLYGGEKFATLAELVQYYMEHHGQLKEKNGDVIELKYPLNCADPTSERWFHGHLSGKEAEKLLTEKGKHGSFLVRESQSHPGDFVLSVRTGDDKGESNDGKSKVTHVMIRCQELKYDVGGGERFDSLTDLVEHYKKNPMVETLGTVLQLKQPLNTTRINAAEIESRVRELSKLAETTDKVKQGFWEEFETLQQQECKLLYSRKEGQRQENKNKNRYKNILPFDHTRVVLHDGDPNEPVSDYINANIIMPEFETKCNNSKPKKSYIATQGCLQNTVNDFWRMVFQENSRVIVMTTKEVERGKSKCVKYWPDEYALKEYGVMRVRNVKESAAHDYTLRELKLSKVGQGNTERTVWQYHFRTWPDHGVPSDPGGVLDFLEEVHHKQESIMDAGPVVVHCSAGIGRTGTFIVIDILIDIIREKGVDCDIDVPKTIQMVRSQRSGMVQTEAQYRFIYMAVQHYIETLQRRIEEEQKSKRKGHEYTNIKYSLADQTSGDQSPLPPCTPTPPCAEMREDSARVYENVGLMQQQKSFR
Chain of Beta-galactosidase (Q8VNN2 whole entry): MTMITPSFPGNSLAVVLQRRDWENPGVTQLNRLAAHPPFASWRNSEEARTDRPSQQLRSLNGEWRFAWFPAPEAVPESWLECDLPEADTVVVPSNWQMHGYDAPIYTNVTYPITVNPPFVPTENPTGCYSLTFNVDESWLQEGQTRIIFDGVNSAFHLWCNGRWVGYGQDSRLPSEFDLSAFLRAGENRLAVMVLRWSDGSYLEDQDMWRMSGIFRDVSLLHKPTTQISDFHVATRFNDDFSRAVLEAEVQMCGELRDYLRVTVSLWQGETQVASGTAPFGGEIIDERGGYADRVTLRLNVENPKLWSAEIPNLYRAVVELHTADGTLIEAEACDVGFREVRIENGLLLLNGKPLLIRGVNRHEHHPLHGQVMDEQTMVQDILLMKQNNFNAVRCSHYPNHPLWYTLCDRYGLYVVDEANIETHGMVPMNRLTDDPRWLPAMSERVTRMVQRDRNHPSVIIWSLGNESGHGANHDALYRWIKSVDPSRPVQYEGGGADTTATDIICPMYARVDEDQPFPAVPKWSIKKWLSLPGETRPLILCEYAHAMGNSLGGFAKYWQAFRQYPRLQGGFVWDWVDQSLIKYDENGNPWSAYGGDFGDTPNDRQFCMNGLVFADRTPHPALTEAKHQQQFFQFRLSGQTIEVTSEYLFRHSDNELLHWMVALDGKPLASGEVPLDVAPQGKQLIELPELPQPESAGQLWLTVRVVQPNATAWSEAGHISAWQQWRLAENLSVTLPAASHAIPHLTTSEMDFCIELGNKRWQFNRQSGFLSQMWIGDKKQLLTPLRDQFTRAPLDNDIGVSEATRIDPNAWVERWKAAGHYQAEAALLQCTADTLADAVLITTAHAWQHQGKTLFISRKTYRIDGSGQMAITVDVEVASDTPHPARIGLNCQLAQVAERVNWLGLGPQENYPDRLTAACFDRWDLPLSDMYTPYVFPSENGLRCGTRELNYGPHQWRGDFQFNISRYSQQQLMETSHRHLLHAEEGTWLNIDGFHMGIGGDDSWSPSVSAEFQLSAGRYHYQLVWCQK
Chain of Tyrosine-protein phosphatase non-receptor type 5 (P54829 whole entry): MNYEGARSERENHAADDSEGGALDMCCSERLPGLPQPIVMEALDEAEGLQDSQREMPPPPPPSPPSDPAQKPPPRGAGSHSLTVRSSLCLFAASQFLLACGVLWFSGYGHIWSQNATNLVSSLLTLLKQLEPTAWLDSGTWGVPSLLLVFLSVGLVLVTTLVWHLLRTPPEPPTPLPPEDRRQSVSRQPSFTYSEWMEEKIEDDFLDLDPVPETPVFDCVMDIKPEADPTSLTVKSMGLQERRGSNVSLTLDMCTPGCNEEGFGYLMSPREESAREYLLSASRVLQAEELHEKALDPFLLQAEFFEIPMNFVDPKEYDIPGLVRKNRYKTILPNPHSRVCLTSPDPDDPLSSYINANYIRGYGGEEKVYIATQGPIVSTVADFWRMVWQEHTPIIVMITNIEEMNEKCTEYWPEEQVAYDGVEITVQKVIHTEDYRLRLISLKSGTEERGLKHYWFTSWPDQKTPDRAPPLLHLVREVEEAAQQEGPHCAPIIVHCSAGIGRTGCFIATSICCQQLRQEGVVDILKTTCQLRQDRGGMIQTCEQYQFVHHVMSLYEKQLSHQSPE
Chain of Paired box protein Pax-8 (Q06710 whole entry, the tested form may be a part): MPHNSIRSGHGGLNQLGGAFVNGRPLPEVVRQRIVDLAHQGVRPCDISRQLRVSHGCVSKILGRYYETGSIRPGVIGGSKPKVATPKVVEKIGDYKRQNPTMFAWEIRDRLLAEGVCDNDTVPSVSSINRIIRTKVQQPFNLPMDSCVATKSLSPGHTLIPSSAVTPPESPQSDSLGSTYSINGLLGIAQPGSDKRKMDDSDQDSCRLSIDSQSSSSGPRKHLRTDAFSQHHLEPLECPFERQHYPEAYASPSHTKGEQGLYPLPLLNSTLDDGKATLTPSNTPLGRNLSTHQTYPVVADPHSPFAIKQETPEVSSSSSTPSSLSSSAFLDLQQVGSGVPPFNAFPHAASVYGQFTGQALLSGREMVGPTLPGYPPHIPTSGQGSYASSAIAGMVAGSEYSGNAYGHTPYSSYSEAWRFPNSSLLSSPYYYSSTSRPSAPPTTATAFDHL

O=C(Cc1ccccn1)NCC[C@H]1CC[C@H](NC(=O)Nc2ccc(Cl)cc2)[C@H](CO)O1
AbsAC35 [1]: 142.06 µM

COc1ccc(-c2cn3nc(-c4ccccc4)c(-c4ccccc4)nc3n2)cc1
EC50 [2]: 4 µM (active) | EC50 (Lethal factor): 3.3 µM (active)

CCCCCCCn1c2c(c(=N)c3c1CCC3)CCCC2
EC50 [3]: > 160 µM (inactive) | EC50 [4]: 2.79 µM (active) | EC50 [5]: < 0.1 µM (active) | IC50 [6]: 16.7 µM (not active) | EC50 [7]: > 60 µM (not active) | AC50 [8]: 3.53 µM (active) | IC50 (Galanin receptor type 3): > 1.11 µM (active) | EC50 (cells [9]): 27.7 µM (inactive) | AC50 [10]: 6.62 µM (active) | AC50 [11]: 3.24 µM (active) | AC50 (Paired box protein Pax-8): 0.677 µM (active) | AC50 [12]: 2.6 µM (active) | EC50 (cells [13]): 0.006 µM (active)

COc1ccc(CC(=O)Nc2ncc([N+](=O)[O-])s2)cc1OC
EC50 [5]: 1.27 µM (active) | EC50 [7]: > 60 µM (not active) | IC50 [14]: 3.21 µM (active) | AC50 [15]: 117 µM (active) | AC50 [16]: 112 µM (active) | AC50 (Caspase-6): 2.89 µM (active)

O=C(/C=C/c1ccc(Cl)cc1)N1CCN(Cc2ccccc2)CC1
IC50 (Beta-galactosidase): > 80 µM (inactive)

O=C(Nc1ccc(C(=O)N2CCOCC2)cc1)Nc1cccc(C(F)(F)F)c1
AC50 (HEK293): 3.04 µM (active) | IC50 (Interleukin-8 [17]): > 79 µM (inactive) | IC50 (Interleukin-8 [18]): 41.9 µM (inactive)

Cc1ccc(NC(=O)CN2C(=O)S/C(=C\c3ccc(OCC(=O)O)c(Br)c3)C2=O)cc1
IC50 [19]: 6.33 µM (active) | IC50 [20]: > 80 µM (inactive) | IC50 [21]: 6.91 µM (active)
